Source: a flash point compilation (Sun et al. 2020)

Row | flash point [°C] | Structure (SMILES)
1 | 33.00 | CC(C)OCCO [2-propan-2-yloxyethanol]
2 | -28.00 | CC(C)OC(C)C [2-propan-2-yloxypropane]
3 | 104.00 | CC(C)c1ccccc1O [2-propan-2-ylphenol]
4 | 49.00 | CCCOCCO [2-propoxyethanol]
5 | 111.00 | CCCC(CCC)C(=O)O [2-propylpentanoic acid]
6 | 74.00 | OCCS [2-sulfanylethanol]
7 | 171.00 | CC(C)(C)c1cc(O)ccc1O [2-tert-butylbenzene-1,4-diol]
8 | 84.00 | CC1=CC(=O)CC(C)(C)C1 [3,5,5-trimethylcyclohex-2-en-1-one]
9 | 80.00 | Cc1cc(C)cc(O)c1 [3,5-dimethylphenol]
10 | 74.00 | CC(C)=CCCC(C)CC=O (configuration not stated) [3,7-dimethyloct-6-enal]
11 | 94.00 | C=CC(C)(CCC=C(C)C)OC(C)=O (configuration not stated) [3,7-dimethylocta-1,6-dien-3-yl acetate]
12 | 101.00 | CCC1CCC(CCC(=O)O)C1 (configuration not stated) [3-(3-ethylcyclopentyl)propanoic acid]
13 | 110.00 | CC1(C)CC(N)CC(C)(CN)C1 (configuration not stated) [3-(aminomethyl)-3,5,5-trimethylcyclohexan-1-amine]
14 | 95.00 | CN1CCC[C@H]1c1cccnc1 [3-[(2S)-1-methylpyrrolidin-2-yl]pyridine]
15 | 79.00 | NCCCO [3-aminopropan-1-ol]
16 | 54.00 | CCOCCCO [3-ethoxypropan-1-ol]

Row | flash point [°C] | Structure (SMILES)
17 | 41.00 | CC(=O)C(C)O (configuration not stated) [3-hydroxybutan-2-one]
18 | 66.00 | CC(O)CC=O (configuration not stated) [3-hydroxybutanal]
19 | 97.00 | C=CC(=O)OCCCO [3-hydroxypropyl prop-2-enoate]
20 | 107.00 | CCC=CCC1=C(C)CCC1=O [3-methyl-2-pent-2-enylcyclopent-2-en-1-one]
21 | 61.00 | CSCCC=O [3-methylsulfanylpropanal]
22 | 163.00 | CC(=O)CC(=O)Nc1ccccc1 [3-oxo-N-phenylbutanamide]
23 | 157.00 | O=C1OC(=O)C2CC=CCC12 (configuration not stated) [3a,4,7,7a-tetrahydro-2-benzofuran-1,3-dione]
24 | 118.00 | CC(=O)C=CC1C(C)=CCCC1(C)C (configuration not stated) [4-(2,6,6-trimethylcyclohex-2-en-1-yl)but-3-en-2-one]
25 | 93.00 | CC1(N)CCC(C(C)(C)N)CC1 (configuration not stated) [4-(2-aminopropan-2-yl)-1-methylcyclohexan-1-amine]
26 | 121.00 | C1CN(SSN2CCOCC2)CCO1 [4-(morpholin-4-yldisulfanyl)morpholine]
27 | 193.00 | Nc1ccc(Nc2ccccc2)cc1 [4-N-phenylbenzene-1,4-diamine]
28 | 104.00 | CC/C(=C(/CC)c1ccc(O)cc1)c1ccc(O)cc1 [4-[(E)-4-(4-hydroxyphenyl)hex-3-en-3-yl]phenol]
29 | 153.00 | COc1cc(C=O)ccc1O [4-hydroxy-3-methoxybenzaldehyde]
30 | 132.00 | COc1ccc(O)cc1 [4-methoxyphenol]
31 | 85.00 | Cc1ccc(C#N)cc1 [4-methylbenzonitrile]

The next lines start with the compound.

Row | Structure (SMILES) | flash point [°C]
32 | O=C(O)Cc1ccccc1 [2-phenylacetic acid] | 132.00
33 | Oc1ccccc1-c1ccccc1 [2-phenylphenol] | 124.00
34 | CC(=O)C(C)(C)C [3,3-dimethylbutan-2-one] | 5.00
35 | Nc1ccc(Cl)c(Cl)c1 [3,4-dichloroaniline] | 166.00
36 | O=C1CCCc2ccccc21 [3,4-dihydro-2H-naphthalen-1-one] | 129.00
37 | O=C1CCc2ccccc2O1 [3,4-dihydrochromen-2-one] | 130.00
38 | N#CCCNCCC#N [3-(2-cyanoethylamino)propanenitrile] | 110.00
39 | CN(C)CCC#N [3-(dimethylamino)propanenitrile] | 64.00
40 | C1CC2OC2CC1C1CO1 (configuration not stated) [3-(oxiran-2-yl)-7-oxabicyclo[4.1.0]heptane] | 110.00
41 | Nc1cccc(C(F)(F)F)c1 [3-(trifluoromethyl)aniline] | 85.00
42 | C=CCBr [3-bromoprop-1-ene] | -2.00
43 | C#CCBr [3-bromoprop-1-yne] | 10.00
44 | Cc1ccc(N)cc1Cl [3-chloro-4-methylaniline] | 100.00
45 | Nc1cccc(Cl)c1 [3-chloroaniline] | 124.00
46 | C=CCCl [3-chloroprop-1-ene] | -32.00
47 | N#CCCCl [3-chloropropanenitrile] | 76.00
48 | C=CCN=C=S [3-isothiocyanatoprop-1-ene] | 46.00
49 | Cc1cccc(N)c1 [3-methylaniline] | 86.00

Row | Structure (SMILES) | flash point [°C]
50 | S=c1[nH]c2ccccc2s1 [3H-1,3-benzothiazole-2-thione] | 200.00
51 | O=C1OC(=O)c2c(Cl)c(Cl)c(Cl)c(Cl)c21 [4,5,6,7-tetrachloro-2-benzofuran-1,3-dione] | 362.00
52 | CCC(C)(C)c1ccc(O)cc1 [4-(2-methylbutan-2-yl)phenol] | 111.00
53 | Cc1cc(-c2ccc(N)c(C)c2)ccc1N [4-(4-amino-3-methylphenyl)-2-methylaniline] | 244.00
54 | CN(C)c1ccc(N)cc1 [4-N,4-N-dimethylbenzene-1,4-diamine] | 91.00
55 | CC(C)CC(C)Nc1ccc(Nc2ccccc2)cc1 (configuration not stated) [4-N-(4-methylpentan-2-yl)-1-N-phenylbenzene-1,4-diamine] | 204.00
56 | N=C(N)c1ccc(OCCCCCOc2ccc(C(=N)N)cc2)cc1 [4-[5-(4-carbamimidoylphenoxy)pentoxy]benzenecarboximidamide] | 103.00
57 | Nc1ccc(Cc2ccc(N)c(Cl)c2)cc1Cl [4-[(4-amino-3-chlorophenyl)methyl]-2-chloroaniline] | 113.00
58 | CN(C)c1ccc(Cc2ccc(N(C)C)cc2)cc1 [4-[[4-(dimethylamino)phenyl]methyl]-N,N-dimethylaniline] | 211.00
59 | Cc1cc(Cl)ccc1N [4-chloro-2-methylaniline] | 160.00
60 | Cc1cc(O)ccc1Cl [4-chloro-3-methylphenol] | 110.00
61 | Nc1ccc(Cl)cc1 [4-chloroaniline] | 113.00
62 | C=CC1CC=CCC1 (configuration not stated) [4-ethenylcyclohexene] | 16.00
63 | CCN1CCOCC1 [4-ethylmorpholine] | 28.00
64 | CC1COC(=O)O1 (configuration not stated) [4-methyl-1,3-dioxolan-2-one] | 116.00
65 | Cc1ccc(N)c([N+](=O)[O-])c1 [4-methyl-2-nitroaniline] | 157.00
66 | Cc1ccc(N)cc1[N+](=O)[O-] [4-methyl-3-nitroaniline] | 157.00
67 | Cc1ccc(N)cc1 [4-methylaniline] | 87.00
